Reference: patent US20170143674A1, “Use of Glutaryl Histamine for the Treatment of Respiratory Tract Diseases” (LTD "VALENTA-INTELLEKT", priority 2011, published 2017)
Like-named read-outs stand apart in the source and are kept apart here. Marks after values point to notes of the source that are not given here.

Experiments:
[1] = tested on: acute rhinosinusitis induced by intranasal administration of formalin; format: in vivo, rat
Procedure: Activity of glutaryl histamine was studied in an experimental model of acute rhinosinusitis (ARS).
Administration of 20 μl of 7.5% formalin to the rat nasal passages leads to the development of a clinical picture similar to the symptoms of acute rhinosinusitis in a human.
The tested medicament and reference medicaments were administered for 7 days after administration of 7.5% formalin. Normal saline solution was used as placebo. The animals were subjected to euthanasia on day 8 after induction of experimental acute rhinosinusitis by method of air embolism. During necropsy, nasal passages of all animals were sampled. The obtained material was placed into 10% neutral-buffered formalin for further histological analysis.
The mucous and submucous membranes of both nasal passages (respiratory and olfactory regions) of the experimental animals were subjected to a morphological analysis of the specific activity of glutaryl histamine.
After the clinical phase of the experiment, the material derived from the animals was subjected to the standard treatment to prepare histological paraffin sections with a thickness of 3 to 5 μm. The sections were stained with hematoxylin and eosin for a microscopic study. Comparison and histological analysis of changes were performed versus the group of intact rats.
The main pathological processes inherent in experimental acute rhinosinusitis, such as vascular congestion in mucous membrane, hyperplasia and necrosis of the epithelium, the number of caliciform cells within 1 mm of the mucous membrane in the nasal septum, were evaluated by a semi-quantitative method to evaluate the degree of pathophysiological changes in histological, histochemical and morphological studies.
The microscopic analysis of exudative disorder developed in rats with acute rhinitis was aimed at measuring the number of caliciform cells comprising acidic mucus (Table 3).

LPS-induced tonsillitis = LPS-induced tonsillitis model (E. coli LPS into cervical lymph node); format: in vivo; settings: Diclofenac (11 mg/kg)
Procedure: This example is aimed at evaluating the activity of glutaryl histamine on experimental model of tonsillitis. LPS-induced tonsillitis is one of the most adequate models for the study of the pathogenesis, pathomorphological changes and action of pharmacological medicaments on the course of this disease.
Tonsillitis was induced under anesthesia by administration of a solution of E. coli lipopolysaccharide (LPS) (Sigma) in normal physiological solution in a dose of 20 μg/kg, by 10 μl to the right upper lymph node (Inn. Cervicales superficiales). After administration, the lymph nodes were put under superficial neck muscles and then the skin was stitched. The wound was treated with streptocide. The animal was placed into a post-operation cage.
The tested medicament was administered once daily in a given dose strictly at the stated time for three days before the induction of tonsillitis and 10 days after. Normal saline solution was used as placebo.
Immediately after euthanasia, the animals were subjected to necropsy, the affected and intact lymph nodes were removed and weighed.
The lymph nodes derived from the half of animals from each group were being frozen after removal in a refrigerating chamber at −25° C. for 72 hours. Then the lymph nodes were lyophilized.
In a half of animals from each group (7), the affected lymph nodes were subjected to histological analysis. After euthanasia, intact and affected lymph nodes were removed from each animal. […] Sections with a thickness of 4 to 6 μm were prepared from the paraffin blocks, stained with hematoxylin and eosin to reveal typical pathological processes and study required parameters using light-optical microscope Leica DM LS (magnification 200× and 400×).
Weights of intact and affected lymph nodes were compared and the nodes also were lyophilized to evaluate an effect of the medicaments on the swelling degree and adequacy of the model of tonsillitis.
The protein-synthetic function of the liver and a systemic effect of the medicaments on organism were evaluated in total protein (TP) analysis.

[2] = tested on: Escherichia coli (mouse-adapted strain 4300); test: animal or person; format: in vivo, mice
Procedure: Escherichia coli (mouse-adaptedstrain 4300, Institute collection) was used as an infectious agent. Mice were infected intravenously.
Firstly, there were determined a lethal dose (LD100) of Escherichia coli to be intravenously administered to this line of mice with a certain weight. Fatal cases among mice were registered every day for ten days. […] For this purpose, mice were housed into cages (10 animals per cage) and infected with a lethal dose of Escherichia coli. One hour after each mouse was administered orally levofloxacin in doses of 1, 2, 4, 6, 8, 10, and 12 mg/kg. A group of mice infected with a lethal dose of Escherichia coli without the treatment was considered as a control group. Fatal cases among mice were registered every day for ten days.
The next step of the experiment was to study an effect of combined administration of glutaryl histamine and levofloxacin on a model of E. coli sepsis in mice.
(§1) In the experiment, mice were housed in following groups (10 animals per cage):
Glutaryl histamine was administered orally in the corresponding doses to mice of groups 3, 4, 5, 6, 7, and 8 for 5 days. Five day after, all groups of mice were intravenously administered 0.2 ml of Escherichia coli in the lethal dose. […] After infection and administration of levofloxacin, glutaryl histamine was administered to mice of groups 3-8 for additional 5 days. During the experiment, the animals were observed every day, and fatal cases were registered (see Table 14).

[3] = tested on: Staphylococcus aureus (mouse-adapted strain 10); test: animal or person; format: in vivo, mice
Procedure: The tested medicament was glutaryl histamine in doses of 15, 30 and 45 mg/kg. Solutions of the tested medicament for oral administration were prepared ex tempore. Levofloxacin (in oral administration) was used as a therapeutic preparation since this substance was the most experimentally studied antibiotic approved in clinical practice many years ago.
Staphylococcus aureus (mouse-adaptedstrain 10) was used as an infectious agent. Mice were infected intravenously.
Firstly, there was determined a lethal dose (LD100) of staphylococcus to be intravenously administered to this line of mice having a certain weight. Fatal cases among mice were registered every day for ten days. The lethal dose was 3×10^8 CFU/mouse. […] For this purpose, mice were housed into cages (10 animals per cage) and infected with a lethal dose of staphylococcus. One hour after each mouse was administered orally levofloxacin in doses of 1, 2, 4, 6, 8, 10, and 12 mg/kg. A group of mice infected with a lethal dose of staphylococcus without the treatment was considered as a control group. Fatal cases among mice were registered every day for ten days.
The next step of the experiment was to study an effect of combined administration of glutaryl histamine and levofloxacin on a model of staphylococcal sepsis in mice.
as §1
Glutaryl histamine was administered orally in the corresponding doses to the mice of groups 3, 4, 5, 6, 7, and 8 for 5 days. Five day after, all groups of mice were intravenously administered with 0.2 ml of Staphylococcus aureus in the lethal dose. […] After infection and administration of levofloxacin, glutaryl histamine was administered to mice of groups 3-8 for additional 5 days. During the experiment, the animals were observed every day, and fatal cases were registered (see Table 13).

[4] = tested on: Staphylococcus aureus (mouse-adapted MRSA strain 5); test: animal or person; format: in vivo, mice
Procedure: Tested medicament was glutaryl histamine in doses of 15, 30 and 45 mg/kg. Solutions of the tested medicament for oral administration were prepared ex tempore in stream water. Ampicillin (in intravenous administration) was used as a therapeutic preparation since it is the most experimentally studied antibiotic approved in clinical practice many years ago. Levofloxacin was used as a positive control (in oral administration).
Staphylococcus aureus was used as an infectious agent (mouse-adapted MRSA strain 5, collection from GU NIINA im.G.F. Gauze RAMN).
Firstly, there was determined a lethal dose (LD100) of staphylococcus when intravenously administered to this line of mice with a certain weight. Fatal cases among mice were registered every day for ten days. […] After that, there was determined the dose of ampicillin providing a survival rate of 20% of mice infected with staphylococcus MRSA taken in a lethal dose. For this purpose, mice were housed into cages by 10 animals and infected with a lethal dose of staphylococcus. One hour later, each mouse was intravenously administered ampicillin in doses of 30, 60, 90, 120, 150, and 180 mg/kg. A group of mice infected with a lethal dose of staphylococcus without the treatment was considered as a control group. Fatal cases among mice were registered every day for ten days.
The next step of the experiment was to study an effect of combined administration of glutaryl histamine with ampicilline on a model of MRSA-induced staphylococcal sepsis in mice.
In the experiment, the mice were housed in following groups of 10 animals per cage: […]

[5] = Diclofenac 11 mg/kg, n = 10, listed as diclofenac
[6] = levofloxacin 20 mg/kg, tenth day
[7] = levofloxacin 2.65 mg/kg, tenth day
[8] = group 3: levofloxacin 4 mg/ml per os one time

O=C(O)Cc1ccccc1Nc1c(Cl)cccc1Cl [Diclofenac, diclofenac, reference compound]
Mucopurulent catarrh (number of rats) ([1]; Diclofenac 11 mg/kg, n = 10): 7 | Mucous catarrh (number of rats) ([1]; Diclofenac 11 mg/kg, n = 10): 3 | Without changes (number of rats, mucous membrane in the nasal passages, macroscopic) ([1]; Diclofenac 11 mg/kg, n = 10): 0 | Mucopurulent catarrh (number of rats) [1, 5]: four | Mucous catarrh (number of rats) [1, 5]: three | The number of caliciform cells within 1 mm of the mucosal membrane of the nasal septum ([1]; Diclofenac (11 mg/kg), M ± m): 31.8 ± 1.9* ** | Mortality rate (%) (LPS-induced tonsillitis): 29% | The number of died animals/initial number of animals in a group (LPS-induced tonsillitis): 4/14 | Area of germinal centers of lymphoid follicles in affected lymph nodes (LPS-induced tonsillitis; M ± m): 0.074 ± 0.007* mm^2 | Weight difference between affected and intact lymph nodes (LPS-induced tonsillitis; M ± m): 16.3 ± 1.4 mg

C[C@H]1COc2c(N3CCN(C)CC3)c(F)cc3c(=O)c(C(=O)O)cn1c23 [levofloxacin, reference compound]
ED50 ([2]; Escherichia coli, po, read-out: ED50 (50% effective dose)): 2.97 mg/kg | died/survived animals ([2]; day 1, levofloxacin 20 mg/kg): 0/10 | died/survived animals ([2]; day 2, levofloxacin 20 mg/kg): 0/10 | died/survived animals ([2]; day 3, levofloxacin 20 mg/kg): 0/10 | died/survived animals ([2]; day 4, levofloxacin 20 mg/kg): 1/9 | died/survived animals ([2]; day 5, levofloxacin 20 mg/kg): 2/8 | died/survived animals ([2]; day 6, levofloxacin 20 mg/kg): 3/7 | died/survived animals ([2]; day 7, levofloxacin 20 mg/kg): 4/6 | died/survived animals ([2]; day 8, levofloxacin 20 mg/kg): 5/5 | died/survived animals ([2]; day 9, levofloxacin 20 mg/kg): 5/5 | died/survived animals ([2]; day 10, levofloxacin 20 mg/kg): 5/5 | Mortality rate (%) [2, 6]: 50% | Survival rate (%) [2, 6]: 50% | ED50 ([3]; Staphylococcus aureus, po, read-out: ED50 (50% effective dose)): 2.65 mg/kg | died/survived animals ([3]; day 1, levofloxacin 2.65 mg/kg): 0/10 | died/survived animals ([3]; day 2, levofloxacin 2.65 mg/kg): 0/10 | died/survived animals ([3]; day 3, levofloxacin 2.65 mg/kg): 1/9 | died/survived animals ([3]; day 4, levofloxacin 2.65 mg/kg): 2/8 | died/survived animals ([3]; day 5, levofloxacin 2.65 mg/kg): 4/6 | died/survived animals ([3]; day 6, levofloxacin 2.65 mg/kg): 4/6 | died/survived animals ([3]; day 7, levofloxacin 2.65 mg/kg): 4/6 | died/survived animals ([3]; day 8, levofloxacin 2.65 mg/kg): 5/5 | died/survived animals ([3]; day 9, levofloxacin 2.65 mg/kg): 5/5 | died/survived animals ([3]; day 10, levofloxacin 2.65 mg/kg): 5/5 | Mortality rate (%) [3, 7]: 50% | Survival rate (%) [3, 7]: 50% | ED50 ([4]; Staphylococcus aureus, MRSA, po): 4 mg/kg | died/survived animals ([4]; day 1, group 3: levofloxacin 4 mg/ml per os one time): 0/10 | died/survived animals ([4]; day 2, group 3: levofloxacin 4 mg/ml per os one time): 0/10 | died/survived animals ([4]; day 3, group 3: levofloxacin 4 mg/ml per os one time): 0/10 | died/survived animals ([4]; day 4, group 3: levofloxacin 4 mg/ml per os one time): 1/9 | died/survived animals ([4]; day 5, group 3: levofloxacin 4 mg/ml per os one time): 2/8 | died/survived animals ([4]; day 6, group 3: levofloxacin 4 mg/ml per os one time): 3/7 | died/survived animals ([4]; day 7, group 3: levofloxacin 4 mg/ml per os one time): 4/6 | died/survived animals ([4]; day 8, group 3: levofloxacin 4 mg/ml per os one time): 5/5 | died/survived animals ([4]; day 9, group 3: levofloxacin 4 mg/ml per os one time): 5/5 | died/survived animals ([4]; day 10, group 3: levofloxacin 4 mg/ml per os one time): 5/5 | Mortality rate (%) [4, 8]: 50% | Survival rate (%) [4, 8]: 50%
